Each structure is given as a SMILES string. Read-outs that look alike come from different tables or passages of the source.

One series has as its target TRKA kinase (Homo sapiens, UniProt P04629). In words: Biochemical kinase analysis (HTRF), TRKA. The following applies: 23° C., read-out: Kinase IC50 (nM) TRK A. The procedure:
(§1) Inhibition of TRKA, TRKB, TRKC kinases can be measured by HTRF ([…]) method. The reaction was performed in a 384-well plate at 23° C. with a volume of 20 μL. TRKA TRKB or TRKC kinase were mixed with pre-formulated and diluted compounds of different concentrations for ten minutes in duplicate for each concentration, wherein 11 concentrations made with a 3-fold gradient dilution from the starting concentration of 300 nM were made and the final concentration of DMSO was 2%. The corresponding substrate and ATP were added thereto, and reacted at room temperature for 20 minutes (both a negative and a positive control were set: negative control is blank control, positive control is Entrectinib). After the reaction, detection reagent was added thereto (reagent in HTRF Kinase TK kit), and after incubation at room temperature for 30 minutes, detection was carried out by PerkinElmer Envision microplate reader for determining enzyme activity in the presence of the compounds of the present disclosure at various concentrations, and the inhibitory activity of different concentrations of compounds against enzyme activity was calculated. After that, in accordance with four-factors function and Graphpad 5.0 software, inhibitory activity on enzyme activity under different concentrations of compounds was fitted and IC50 values were calculated.
(TR-FRET usually uses a lanthanide donor and a delayed reading to cut background.)

In the next series the target is TRKB kinase (Homo sapiens, UniProt Q16620). Kind of series: Biochemical kinase analysis (HTRF), TRKB. The settings on record: 23° C., read-out: Kinase IC50 (nM) TRK B. As to the method:
as §1

The target in another series is TRKC kinase (Homo sapiens, UniProt Q16288). Kind of series: Biochemical kinase analysis (HTRF), TRKC. The following applies: 23° C., read-out: Kinase IC50 (nM) TRK C. As to the method:
as §1

The test system of another series is KM12 cell line. Kind of series: KM12 cell proliferation analysis (CellTiter-Glo). The settings on record: Homo sapiens, 72 h. Format: cell-based. The procedure:
The CGT method was used to detect the in vitro anti-proliferative activity of the compounds of the present disclosure on tumor cells cultured in vitro. The KM12 cell line was maintained in RPMI-1640 medium containing 10% fetal bovine serum and antibiotics, the cells in the logarithmic growth phase were harvested and planted in a 96-well plate. The plate was incubated in an incubator at 37° C., containing 5% carbon dioxide gas overnight. After the test compounds were dissolved in DMSO, a 3-fold concentration gradient dilution with 9 compound concentrations was made. Pre-prepared compounds of different concentrations were transferred to the cell plate in triplicate for each concentration, and continue culturing for 72 h. The final concentration of DMSO in the system was 0.1%, and the initial concentration of the test compound was 300 nM.
CellTiter-Glo reagent was added to the cell plate, and incubated at room temperature for 30 minutes to stabilize the optical signal. Detection was carried out by PerkinElmer Envision microplate reader for determining the inhibitory activity of the compound of the present disclosure at various concentrations on cell proliferation. The inhibitory activity of compounds at different concentrations on cell proliferation was fitted according to Graphpad 5.0 software, and IC50 values were calculated.
For orientation: In ATP-based viability assays light output follows the ATP content of the culture.

Series [1] in a line: Pharmacokinetic experiment in rats. On the set-up: Cl_pred (L/kg): unit not given here. Format: in vivo, Sprague-Dawley rats. The settings on record: rat; for AUC(0-t) / Cmax / Tmax / half-life / AUC(0-inf) / MRT inf / bioavailability: male, Sprague-Dawley, plasma; for AUC(0-inf): read-out: AUCINF_pred; for MRT inf: read-out: MRTINF_pred; for bioavailability: PO 10 mg/kg vs IV 3 mg/kg. The procedure:
6 male Sprague-Dawley rats (7-8 weeks old, and weighing approximately 210 g) were divided into 2 groups with 3 rats in each group. The rats were intravenously or orally administered a single dose of compounds (3 mg/kg intravenously, 10 mg/kg orally) to compare pharmacokinetic differences.
The rats were feeded on standard food and water. Fasting was started 16 hours before the test. The drug was dissolved in PEG400 and dimethyl sulfoxide. The blood samples were collected from eyelids at the time points of 0.083 hour, 0.25 hour, 0.5 hour, 1 hour, 2 hours, 4 hours, 6 hours, 8 hours, 12 hours, and 24 hours after administration.
Rats were briefly anesthetized after inhalation of diethyl ether and 300 μL of blood sample was collected from the eyelids into test tubes. There was 30 μL of 1% heparin salt solution in the test tube. Tubes were dried at 60° C. overnight before use. After the blood sample was collected at the last time point, the rats were sacrificed after ether anesthesia.
Immediately after the collection of the blood sample, the test tube was gently inverted at least 5 times to ensure sufficient mixing and then placed on ice. The blood sample was centrifuged at 5000 rpm at 4° C. for 5 minutes to separate the plasma from the red blood cells. 100 μL of plasma was aspirated into a clean plastic centrifuge tube with a pipette, marking with the name of the compound and time point. Plasma was stored at −80° C. prior to analysis. The concentration of the compound of the present disclosure in plasma was determined by LC-MS/MS. The pharmacokinetic parameters were calculated based on the blood concentration of the drug for each animal at different time points.

Chain of TRKB kinase (Q16620 32-822): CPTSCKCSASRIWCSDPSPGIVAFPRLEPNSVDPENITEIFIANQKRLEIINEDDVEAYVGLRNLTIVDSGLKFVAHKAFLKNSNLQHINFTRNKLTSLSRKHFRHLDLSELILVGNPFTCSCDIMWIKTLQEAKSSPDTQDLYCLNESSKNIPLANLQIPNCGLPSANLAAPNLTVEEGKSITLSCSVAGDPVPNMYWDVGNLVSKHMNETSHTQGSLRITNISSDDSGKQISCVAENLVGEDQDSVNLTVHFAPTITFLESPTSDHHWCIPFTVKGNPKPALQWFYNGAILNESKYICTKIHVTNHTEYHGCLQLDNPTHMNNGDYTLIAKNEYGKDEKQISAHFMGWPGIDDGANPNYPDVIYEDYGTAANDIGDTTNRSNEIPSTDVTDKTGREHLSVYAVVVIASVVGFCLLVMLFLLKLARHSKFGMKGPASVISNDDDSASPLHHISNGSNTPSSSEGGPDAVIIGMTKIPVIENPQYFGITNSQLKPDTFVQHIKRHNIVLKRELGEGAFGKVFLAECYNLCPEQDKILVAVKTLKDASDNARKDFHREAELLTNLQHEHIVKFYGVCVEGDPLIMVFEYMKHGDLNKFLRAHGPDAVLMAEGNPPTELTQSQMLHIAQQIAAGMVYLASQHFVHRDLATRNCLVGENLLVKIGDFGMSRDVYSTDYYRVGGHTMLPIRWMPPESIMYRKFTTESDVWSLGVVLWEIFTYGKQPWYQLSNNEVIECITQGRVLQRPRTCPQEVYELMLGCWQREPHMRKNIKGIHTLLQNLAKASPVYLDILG
Chain of TRKC kinase (Q16288 32-839): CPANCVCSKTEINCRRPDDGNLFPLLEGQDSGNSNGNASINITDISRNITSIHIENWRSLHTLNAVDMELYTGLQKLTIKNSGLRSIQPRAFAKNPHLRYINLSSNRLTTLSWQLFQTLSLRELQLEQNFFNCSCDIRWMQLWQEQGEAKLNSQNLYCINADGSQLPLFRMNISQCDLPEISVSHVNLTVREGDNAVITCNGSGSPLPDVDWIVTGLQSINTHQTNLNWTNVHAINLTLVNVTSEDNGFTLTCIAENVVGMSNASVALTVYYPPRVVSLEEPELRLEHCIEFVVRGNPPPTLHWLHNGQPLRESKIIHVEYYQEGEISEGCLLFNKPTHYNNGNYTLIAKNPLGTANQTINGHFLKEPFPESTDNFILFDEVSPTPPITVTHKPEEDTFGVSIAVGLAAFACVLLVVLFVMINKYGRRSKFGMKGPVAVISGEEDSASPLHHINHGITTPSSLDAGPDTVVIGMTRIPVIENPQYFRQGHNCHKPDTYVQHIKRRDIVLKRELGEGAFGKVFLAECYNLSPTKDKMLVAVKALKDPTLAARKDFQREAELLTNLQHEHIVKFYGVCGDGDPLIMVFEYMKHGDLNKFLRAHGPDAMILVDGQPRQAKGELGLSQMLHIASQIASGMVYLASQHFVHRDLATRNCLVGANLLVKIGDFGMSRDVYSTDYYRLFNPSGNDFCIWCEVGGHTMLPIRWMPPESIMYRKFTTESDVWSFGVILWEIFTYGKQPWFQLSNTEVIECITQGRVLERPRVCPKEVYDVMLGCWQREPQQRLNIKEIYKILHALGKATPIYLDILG
Chain of TRKA kinase (P04629 33-796): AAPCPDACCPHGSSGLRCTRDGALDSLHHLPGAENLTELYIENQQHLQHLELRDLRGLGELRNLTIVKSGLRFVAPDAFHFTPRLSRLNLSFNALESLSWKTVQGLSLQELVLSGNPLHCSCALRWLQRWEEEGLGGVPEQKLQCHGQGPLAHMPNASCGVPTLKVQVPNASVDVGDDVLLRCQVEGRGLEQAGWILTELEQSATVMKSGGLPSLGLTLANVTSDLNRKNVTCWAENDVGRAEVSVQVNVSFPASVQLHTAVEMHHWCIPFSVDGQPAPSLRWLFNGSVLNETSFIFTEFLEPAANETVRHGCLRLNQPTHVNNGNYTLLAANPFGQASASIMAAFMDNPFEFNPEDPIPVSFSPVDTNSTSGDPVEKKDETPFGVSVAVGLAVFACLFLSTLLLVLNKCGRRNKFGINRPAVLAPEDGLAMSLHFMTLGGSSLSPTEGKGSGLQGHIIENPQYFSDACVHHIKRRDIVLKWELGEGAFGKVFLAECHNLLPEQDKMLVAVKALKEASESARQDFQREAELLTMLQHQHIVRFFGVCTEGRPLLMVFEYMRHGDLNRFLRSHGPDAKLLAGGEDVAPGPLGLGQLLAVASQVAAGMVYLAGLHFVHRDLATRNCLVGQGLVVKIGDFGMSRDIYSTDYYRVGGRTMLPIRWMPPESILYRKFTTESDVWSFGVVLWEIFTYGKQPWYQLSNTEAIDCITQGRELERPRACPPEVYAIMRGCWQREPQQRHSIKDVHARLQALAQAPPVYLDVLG

Turning to `C[C@H]1CC(=O)Nc2cnn3ccc(nc23)N2CCC[C@@H]2c2cc(F)ccc2O1` [Compound L-2-A, (6R,14S)-9-fluoro-14-methyl-13-oxa-2,17,20,21,24-pentaazapentacyclo[16.5.2.0^2,6.0^7,12.0^21,25]pentacosane-1(24),7,9,11,18(25),19,22-heptaene-16-one], the IC50 on TRKA kinase worked out at 0.17 nM. At TRKB kinase, the IC50 was determined as 0.1 nM. At TRKC kinase, the half-maximal inhibitory concentration (IC50) was found to be 0.1 nM. The molecule further gave an IC50 in the series with KM12 cell line of 0.25 nM. Besides, in series [1] (IV 3 mg/kg), the AUC(0-t) came to 2480 ng·h/mL, the Cmax came to 1620 ng/mL, the Tmax is 0.08 h and the half-life is 2.41 h. Further, in series [1] (IV 3 mg/kg), the AUC(0-inf) is 2480 ng·h/mL, the MRT inf is 1.2 h, the “Cl_pred (L/kg)” value is 1.23 and the “Vz_pred” value was 1.85 L/kg. In addition, in series [1] (PO 10 mg/kg), the AUC(0-t) came out at 4470 ng·h/mL, the Cmax was 1410 ng/mL, the Tmax was determined as 0.5 h and the half-life is 2.02 h. Also, in series [1] (PO 10 mg/kg), the AUC(0-inf) is 4530 ng·h/mL, the MRT inf was found to be 2.8 h, the “Cl_pred (L/kg)” value was 2.44 and the “Vz_pred” value came to 8.50 L/kg. For the same molecule, the bioavailability in series [1] is 54.2%.

With `C[C@H]1Nc2ccn3ncc(c3n2)NC(=O)CCOc2ccc(F)cc21` [Compound T-1, (13R)-11-fluoro-13-methyl-6,7,13,14-tetrahydro-1,15-ethenopyrazolo[4,3-f][1,4,8,10]benzoxatriazacyclotridecin-5(6H)-one], the IC50 on TRKA kinase is less than 0.17 nM. For the same molecule, the IC50 at TRKB kinase is less than 0.17 nM. Further, the IC50 on TRKC kinase is less than 0.17 nM. This molecule came in with an IC50 in the series on KM12 cell line of 5.13 nM. Also, in series [1] (IV 3 mg/kg), the AUC(0-t) was 6240 ng·h/mL, the highest level (Cmax) was 2120 ng/mL, the Tmax was 0.08 h and the half-life is 9.05 h. Moreover, in series [1] (IV 3 mg/kg), the AUC(0-inf) is 6350 ng·h/mL, the MRT inf came to 4.04 h, the “Cl_pred (L/kg)” value came out at 0.47 and the “Vz_pred” value came to 3.28 L/kg. Besides, in series [1] (PO 10 mg/kg), the area under the curve AUC(0-t) was 11500 ng·h/mL, the highest level (Cmax) was 1860 ng/mL, the Tmax is 1.67 h and the half-life was 0.36 h. Further, in series [1] (PO 10 mg/kg), the AUC(0-inf) is 13100 ng·h/mL, the MRT inf came out at 6.23 h, the “Cl_pred (L/kg)” value was 0.77 and the “Vz_pred” value is 10.05 L/kg. The molecule also returned a bioavailability in series [1] of 55.5%.

For the molecule `C[C@H]1CC(=O)Nc2cnn3ccc(nc23)N[C@H](C)c2cc(F)ccc2O1` [Compound T-2-A, (7S,13R)-11-fluoro-7,13-dimethyl-6,7,13,14-tetrahydro-1,15-ethenopyrazolo[4,3-f][1,4,8,10]benzoxatriazacyclotiidecin-5(6H)-one], the IC50 on TRKA kinase was found to be 0.19 nM. For the same molecule, on TRKB kinase, the IC50 stood at 0.1 nM. Moreover, the IC50 at TRKC kinase was found to be 0.06 nM. Moreover, the IC50 in the series with KM12 cell line is 1.6 nM. Further, in series [1] (IV 3 mg/kg), the AUC(0-t) is 6560 ng·h/mL, the Cmax is 2100 ng/mL, the Tmax came to 0.08 h and the half-life was 5.59 h. In series [1] (IV 3 mg/kg), the AUC(0-inf) is 6620 ng·h/mL, the MRT inf amounted to 3.44 h, the “Cl_pred (L/kg)” value was 0.45 and the “Vz_pred” value is given as 2.67 L/kg. In addition, in series [1] (PO 10 mg/kg), the exposure AUC(0-t) came to 11500 ng·h/mL, the Cmax is 994 ng/mL, the Tmax is 2.17 h and the half-life was 4.84 h. In series [1] (PO 10 mg/kg), the AUC(0-inf) was 12900 ng·h/mL, the MRT inf was 7.37 h, the “Cl_pred (L/kg)” value stood at 0.83 and the “Vz_pred” value is reported as 6.70 L/kg. The molecule also returned a bioavailability in series [1] of 52.7%.

As a reminder, the IC50 is the concentration that inhibits the measured activity by half. For orientation: AUC(0-t) means exposure summed from dosing to a finite time, without extrapolation to infinity. In general, Cmax refers to the highest concentration seen after dosing. One may read the Tmax as the time at which the peak concentration occurs. As usually defined, the half-life is how long it takes for the measured level to halve. Usually bioavailability stands for the share of a dose that reaches the circulation, judged against a reference dose that is usually intravenous.
